Experimental data as given in ChEMBL document CHEMBL1201862, “PubChem BioAssay data set” (2004).
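Briefly, cells in 96-well plates were exposed to five compound concentrations for 48 h, and endpoints were estimated by linear interpolation. GI50 marks 50% less growth.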 Calls of active or inactive are those of the source. Cut-off read from the data, not from the text of the source: active = GI50 up to about 1.1 µM and inactive = higher.

Columns and labels:
Test in all cases: DTP human tumour cell line panel, 48 h
786-0 = system: 786-0
ACHN = system: ACHN
CCRF-CEM = system: CCRF-CEM
EKVX = system: EKVX
HCC 2998 = system: HCC 2998
HCT-116 = system: HCT-116
HCT-15 = system: HCT-15
HOP-92 = system: HOP-92
HT-29 = system: HT-29
M14 = system: M14
MOLT-4 = system: MOLT-4
OVCAR-4 = system: OVCAR-4
OVCAR-8 = system: OVCAR-8
RPMI-8226 = system: RPMI-8226
SF-268 = system: SF-268
SK-MEL-5 = system: SK-MEL-5
SK-OV-3 = system: SK-OV-3
SR = system: SR
SW-620 = system: SW-620
UO-31 = system: UO-31

## C1OCN2c3nonc3N3COCN4c5nonc5N1C2C43 (stereo not given)
786-0
  GI50: > 100 µM (inactive)
ACHN
  GI50: > 100 µM (inactive)
CCRF-CEM
  GI50: 77.8 µM (inactive)
EKVX
  GI50: > 100 µM (inactive)
HCC 2998
  GI50: 68.4 µM (inactive)
HCT-116
  GI50: 57.4 µM (inactive)
HCT-15
  GI50: 65.9 µM
HOP-92
  GI50: > 100 µM (inactive)
HT-29
  GI50: 31.1 µM (inactive)
M14
  GI50: > 100 µM (inactive)
MOLT-4
  GI50: 50.1 µM (inactive)
OVCAR-4
  GI50: > 100 µM (inactive)
OVCAR-8
  GI50: > 100 µM (inactive)
RPMI-8226
  GI50: > 100 µM (inactive)
SF-268
  GI50: > 100 µM (inactive)
SK-MEL-5
  GI50: > 100 µM (inactive)
SK-OV-3
  GI50: > 100 µM (inactive)
SR
  GI50: > 100 µM (inactive)
SW-620
  GI50: > 100 µM (inactive)
UO-31
  GI50: > 100 µM (inactive)
